Test results as given in US20230024108A1, “ADENOSINE A2A RECEPTOR ANTAGONISTS” (Teon Therapeutics, Inc., priority 2019, published 2023).

Legend:
human A2A AdoR = target: T1, human A2A AdoR (Homo sapiens, UniProt P29274); test: Adenosine receptor binding assay, A2A ([3H]-CGS-21680); conditions: membranes of HEK-293 cells expressing human A2A AdoR; read-out: hA2A IC50
T1 construct: purchased PerkinElmer RBHA2AM400UA
Protocol: (§1) Membranes prepared from CHO-K1 cells stably expressing Human AiAdoR (ES-010-M400UA), HEK-293 cells stably expressing human A2A AdoR (RBHA2AM400UA), HEK-293 cells stably expressing human A2B AdoR (ES-013-M400UA) and CHO-K1 cells stably expressing Human A3 AdoR (ES-012-M400UA) were purchased from PerkinElmer (Waltham, Mass., USA) and stored at −80° C. until use. Binding assays are performed using the radioligands. The final concentrations are as follows: [3H]-DPCPX (PerkinElmer, NET974001MC) at 1 nM for A1AdoR; [^3H]-CGS-21680 (PerkinElmer, NET1021250UC) at 6 nM for A2AAdoR, [3H]-DPCPX (PerkinElmer, NET974001MC) at 8 nM for A2BAdoR; [^3H]-HEMADO (ARC, Cat: ART1456) at 1 nM for A3AdoR. Testing compounds are diluted with DMSO to make 8-point 4-fold serial dilution. Nonspecific binding (Low control: LC) and total binding (High control: HC) are determined in the presence or absence of saturated cold ligand. Specific binding is calculated by subtracting nonspecific binding from total binding. All assays are performed in a final volume of 200 μl containing 1 μl of the test compound in DMSO, 100 μl of membrane preparation, and 99 μl of the radioligand in assay buffer (A1AdoR: 25 mM HEPES pH 7.4, 5 mM MgCl2, 1 mM CaCl2), 100 mM NaCl; A2AAdoR: 50 mM Tris HCl pH 7.4, 10 mM MgCl2, 1 mM EDTA; A2BAdoR: 50 mM HEPES pH 7.0, 5 mM MgCl2, 1 mM EDTA; A3AdoR: 25 HEPES pH 7.4, 10 mM MgCl2, 1 mM CaCl2), 0.5% BSA). The incubation is performed at room temperature with shaking at 300 rpm for 1 hour for A1AdoR, A2BAdoR and A3AdoR and 2 hours for A2AAdoR. After the incubation, the assay mixture is filtered through 96 GF/C filter plates (Perkin Elmer #6005174) using Perkin Elmer Filtermate Harvester, and then washed four times with ice-cold washing buffer (A1AdoR: 25 mM HEPES pH 7.4, 5 mM MgCl2, 1 mM CaCl2), 100 mM NaCl; A2AAdoR: 50 mM Tris HCl pH 7.4, 154 mM NaCl; A2BAdoR: 50 mM HEPES pH 6.5, 5 mM MgCl2, 1 mM EDTA, 0.2% BSA; A3AdoR: 50 mM Tris HCl pH 7.4). The filters are dried for 1 hour at 50° C. and [^3H] trapped on filter counted for radioactivity in Perkin Elmer Microscint 20 cocktail (#6013329) using Perkin Elmer MicroBeta2 Reader. The results are expressed as a percent inhibition of the control radioligand specific binding calculated using the following equation: % Inhibition=(1−(Assay well-Average_LC)/(Average_HC−Average_LC))×100%. Data are analyzed and IC50 is calculated using GraphPad Prism 5 and the model “log(inhibitor) vs. response—Variable slope”. The binding affinity of the compounds is determined by using the Cheng and Prusoff equation Ki=IC50/(1+[radioligand]/Kd).

A1AdoR = target: T2, A1AdoR (Homo sapiens, UniProt P30542); test: Adenosine receptor binding assay, A1 ([3H]-DPCPX); conditions: ratio A1 vs A2A binding
T2 construct: purchased PerkinElmer ES-010-M400UA
T2 sequence (P30542 1-326): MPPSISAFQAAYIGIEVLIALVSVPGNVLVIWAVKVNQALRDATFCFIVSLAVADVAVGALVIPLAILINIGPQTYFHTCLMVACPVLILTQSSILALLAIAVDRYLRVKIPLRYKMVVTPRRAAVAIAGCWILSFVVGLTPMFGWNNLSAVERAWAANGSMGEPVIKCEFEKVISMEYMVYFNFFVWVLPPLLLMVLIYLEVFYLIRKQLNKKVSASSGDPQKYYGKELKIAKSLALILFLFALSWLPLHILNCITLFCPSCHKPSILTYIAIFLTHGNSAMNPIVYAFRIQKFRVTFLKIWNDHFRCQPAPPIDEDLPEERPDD
Protocol: as §1

T1 sequence (P29274 whole entry): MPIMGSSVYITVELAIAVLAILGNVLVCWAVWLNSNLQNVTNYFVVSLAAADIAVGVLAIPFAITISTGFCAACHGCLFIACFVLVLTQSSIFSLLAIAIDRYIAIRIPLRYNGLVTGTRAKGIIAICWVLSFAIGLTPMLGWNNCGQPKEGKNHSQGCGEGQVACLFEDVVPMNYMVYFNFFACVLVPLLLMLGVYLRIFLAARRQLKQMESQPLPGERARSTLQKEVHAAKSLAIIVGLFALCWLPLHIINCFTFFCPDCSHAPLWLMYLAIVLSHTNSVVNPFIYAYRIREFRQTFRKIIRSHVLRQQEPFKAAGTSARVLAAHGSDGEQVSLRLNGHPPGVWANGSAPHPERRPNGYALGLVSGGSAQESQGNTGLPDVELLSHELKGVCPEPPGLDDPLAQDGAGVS

Row | Compound | IC50 (human A2A AdoR) | A1/A2A Selectivity (A1AdoR)
1 | NC(=O)c1c(Cl)c2c(nc(N)n3nc(-c4ccccn4)nc23)n1CCN1CCN(c2cc(-c3ncco3)ccc2F)CC1 [5-amino-9-chloro-7-(2-(4-(2-fluoro-5-(oxazol-2-yl)phenyl)piperazin-1-yl)ethyl)-2-(pyridin-2-yl)-7H-pyrrolo[3,2-e][1,2,4]triazolo[1,5-c]pyrimidine-8-carboxamide] | ≤ 20 nM | a (greater than 1000)
2 | Cc1c(C(N)=O)n(CCN2CCN(c3ccncc3)CC2)c2nc(N)n3nc(-c4ccccn4)nc3c12 [5-amino-9-methyl-2-(pyridin-2-yl)-7-(2-(4-(pyridin-4-yl)piperazin-1-yl)ethyl)-7H-pyrrolo[3,2-e][1,2,4]triazolo[1,5-c]pyrimidine-8-carboxamide] | ≤ 20 nM | c (greater than 0 but less than or equal to 100)
3 | CC#Cc1nc2c3ncn(CCN4CCN(c5ccc(OC(C)(C)C(=O)OC)cc5F)CC4)c3nc(N)n2n1 | ≤ 20 nM | a (greater than 1000)
4 | Nc1nc2c(ncn2CCN2CCc3ncc(-c4nccs4)cc3C2)c2nc(-c3ccccn3)nn12 | ≤ 20 nM | c (greater than 0 but less than or equal to 100)
5 | Cc1cnc2c(c1)CN(CCn1nc(Cl)c3c1nc(N)n1nc(-c4ccccn4)nc31)CC2 [9-chloro-7-(2-(3-methyl-7,8-dihydro-1,6-naphthyridin-6(5H)-yl)ethyl)-2-(pyridin-2-yl)-7H-pyrazolo[4,3-e][1,2,4]triazolo[1,5-c]pyrimidin-5-amine] | ≤ 20 nM | c (greater than 0 but less than or equal to 100)
6 | COC(=O)c1c(C)c2c(nc(N)n3nc(-c4ccccn4)nc23)n1CCN1CCCN(c2cc3c(C)noc3cc2F)CC1 [methyl 5-amino-7-(2-(4-(6-fluoro-3-methylbenzo[d]isoxazol-5-yl)-1,4-diazepan-1-yl)ethyl)-9-methyl-2-(pyridin-2-yl)-7H-pyrrolo[3,2-e][1,2,4]triazolo[1,5-c]pyrimidine-8-carboxylate] | ≤ 20 nM | b (greater than 100 but less than or equal to 1000)
7 | CNC(=O)c1c(Cl)c2c(nc(N)n3nc(-c4ccccn4)nc23)n1CCN1CCN(c2cc(-c3ncco3)ccc2F)CC1 | ≤ 20 nM | a (greater than 1000)
8 | Nc1nc2c(c(Cl)c(C(=O)O)n2CCN2CCN(c3cc(-c4ncco4)ccc3F)CC2)c2nc(-c3ccccn3)nn12 [5-amino-9-chloro-7-(2-(4-(2-fluoro-5-(oxazol-2-yl)phenyl)piperazin-1-yl)ethyl)-2-(pyridin-2-yl)-7H-pyrrolo[3,2-e][1,2,4]triazolo[1,5-c]pyrimidine-8-carboxylic acid] | ≤ 20 nM | b (greater than 100 but less than or equal to 1000)
9 | Cc1noc2cc(F)c(N3CCCN(CCn4c(C(N)=O)c(Cl)c5c4nc(N)n4nc(-c6ccccn6)nc54)CC3)cc12 | ≤ 20 nM | b (greater than 100 but less than or equal to 1000)
10 | Cc1noc2cc(F)c(N3CCN(CCn4c(C(N)=O)c(C)c5c4nc(N)n4nc(-c6ccccn6)nc54)CC3)cc12 [5-amino-7-(2-(4-(6-fluoro-3-methylbenzo[d]isoxazol-5-yl)piperazin-1-yl)ethyl)-9-methyl-2-(pyridin-2-yl)-7H-pyrrolo[3,2-e][1,2,4]triazolo[1,5-c]pyrimidine-8-carboxamide] | ≤ 20 nM | a (greater than 1000)
11 | Nc1nc2c(ncn2CCN2CCN(c3cc(-c4ncco4)ccc3F)CC2)c2nc(-c3ccccn3)nn12 [3-(2-(4-(2-fluoro-5-(oxazol-2-yl)phenyl)piperazin-1-yl)ethyl)-8-(pyridin-2-yl)-3H-[1,2,4]triazolo[5,1-i]purin-5-amine] | ≤ 20 nM | b (greater than 100 but less than or equal to 1000)
12 | CC(C)(Oc1ccc(N2CCN(CCn3cnc4c3nc(N)n3nc(-c5ccccn5)nc43)CC2)c(F)c1)C(=O)O [2-(4-(4-(2-(5-amino-8-(pyridin-2-yl)-3H-[1,2,4]triazolo[5,1-i]purin-3-yl)ethyl)piperazin-1-yl)-3-fluorophenoxy)-2-methylpropanoic acid] | ≤ 20 nM | b (greater than 100 but less than or equal to 1000)
13 | Nc1nc2c(c(Cl)c(C(=O)O)n2CCN2CCN(c3ccc(F)cc3F)CC2)c2nc(-c3ccccn3)nn12 [5-amino-9-chloro-7-(2-(4-(2,4-difluorophenyl)piperazin-1-yl)ethyl)-2-(pyridin-2-yl)-7H-pyrrolo[3,2-e][1,2,4]triazolo[1,5-c]pyrimidine-8-carboxylic acid] | ≤ 20 nM | b (greater than 100 but less than or equal to 1000)
14 | Cc1c(C(N)=O)n(CCN2CCN(c3ncccn3)CC2)c2nc(N)n3nc(-c4ccccn4)nc3c12 [5-amino-9-methyl-2-(pyridin-2-yl)-7-(2-(4-(pyrimidin-2-yl)piperazin-1-yl)ethyl)-7H-pyrrolo[3,2-e][1,2,4]triazolo[1,5-c]pyrimidine-8-carboxamide] | ≤ 20 nM | b (greater than 100 but less than or equal to 1000)
